From patent US6809077B2, “Cyclosporin analogs for the treatment of autoimmune diseases” (Enanta Pharmaceuticals, Inc., priority 2001, dated 2004)

How the values were obtained:
[1] = system: NFAT proteins (pNFAT-Luc luciferase) in Jurkat cells; experiment: NFAT reporter gene assay, pNFAT-Luc plasmid in Jurkat cells; format: cell-based, human; details: Jurkat cells transfected with pNFAT-Luc, treated with 60 ng/ml of PMA and 1 μg/ml of inomycin in combination
Description: (§1) NFAT activation follows precisely the activation of calcineurin by increased free calcium levels in the cytoplasm. Researchers from diverse fields are interested in the NFAT family of transcription factors, which are potential targets for newer and safer immunosuppressive drugs. In addition, the activation of NFAT proteins involves various cellular signal transduction pathways, including calcium mobilization and mitogen-activated protein kinase (MAP kinase) pathways linked to T-cell receptors and Ras1. To assist researchers probing the activity of NFAT proteins, Stratagene has developed a PathDetect cis-reporter plasmid, the pNFAT-Luc reporter plasmid (Stratagene, Inc. catalog #219094), containing the NFAT binding site from the human IL-2 gene.2,7-9. The NEAT cis-reporting system includes the transfection-ready pNFAT-Luc reporter plasmid and the pCIS-CK negative control plasmid.
(§2) The backbone of the 5749-base-pair pNFAT-Luc plasmid is the pFR-Luc reporter plasmid of the aforementioned PathDetect trans-reporting system. […]
(§3) Cyclosporin inhibits the activity of calcineurin, a protein phosphatase regulated by intracellular calcium mobilization. […] The inhibition of luciferase expression from pNFAT-Luc in the present model, in both Jurkat and CHO cells induced by PMA and ionomycin, was monitored for cyclosporin (as a positive control) and the cyclosporin analogs of the present invention.

[2] = system: NFAT proteins (pNFAT-Luc luciferase) in cells transfected with pNFAT-Luc; experiment: NFAT reporter gene assay, cells transfected with pNFAT-Luc, single stimulus; format: cell-based; details: treated with either PMA or onomycin alone
Description: as §1
The backbone of the 5749-base-pair pNFAT-Luc plasmid is the pFR-Luc reporter plasmid of the aforementioned PathDetect trans-reporting system. To this backbone, the GAL4 binding element was replaced with four direct repeats of the NFAT binding sequence (−286 to −257) from the IL-2 gene promoter, the most studied and widely used NFAT binding sequence. […]

[3] = system: NFAT proteins (pNFAT-Luc luciferase) in Chinese hamster ovary cells (CHO cells); experiment: NFAT reporter gene assay, pNFAT-Luc plasmid in CHO cells; format: cell-based; details: CHO cells transfected with pNFAT-Luc, treated with 60 ng/ml of PMA and 1 μg/ml of inomycin in combination
Description: as §1, §2, §3

| SMILES | luciferase activity increased [1] [fold] | increase in luciferase activity [2] | luciferase activity increased [3] [fold] |
| --- | --- | --- | --- |
| CCCCCCCCCCCCCC(=O)O[C@@H]1[C@@H](C)[C@@]2(O)[C@@H](C=C(CO)C[C@]3(O)C(=O)C(C)=C[C@@H]23)[C@@H]2C(C)(C)[C@]12OC(C)=O [PMA] | 13 | did not show a significant increase | 16 |
| C[C@H](CCC(=O)O)C[C@H](C)C[C@H](C)C(=O)/C=C(\O)[C@H](C)C[C@H](C)C/C=C/[C@@H](C)[C@@H](O)[C@@H](C)[C@@H](O)C[C@@H]1CC[C@@](C)([C@H]2CC[C@@](C)([C@@H](C)O)O2)O1 [onomycin] | – | did not show a significant increase | – |
